According to US11090305B2, “Methods and compositions to reduce oxidative stress” (University of Massachusetts, priority 2009, dated 2021):

Assays:
db/db MSC = test: Oxidative/nitrative stress in db/db MSC (DCF-DA staining, nitrotyrosine); type: cell-based, mouse; details: db/db MSC in vitro
Text: Data are expressed as % positive DCF-DA cells/hpf. m±sd, n=5, *p<0.05. […] The db/db MSC expressed a greater oxidative/nitrative stress than WT MSC. […] In summary, in vitro, db/db MSC show greater oxidative nitrostive stress than WT MSCs and this phenotype can be reversed by N-acetylcysteine (NAC).

p38 MAPK = test: Phosphorylated (activated) p38 MAPK expression in HSCs; type: in vivo, mouse
Text: Activation of p38 MAPK by ROS has been reported in Atm^−/− mice and this event participates in ROS-induced loss of HSC quiescence. Expression of p38 MAPK was similar in HSCs from ApoE^−/−, HCD, and WT mice. However, expression of activated (phosphorylated) p38 MAPK is greater in HSCs from hypercholesterolemic mice than from WT mice (FIGS. 44A and 44B). FIGS. 44A-44C show p38 MAPK activation is greater in HSC from hypercholesterolemic mice. […] Neither treatment affected the outcome of competitive transplant with WT HSCs. m±sd, n=5 mice per group, *p<0.05 vs. WT, † p<0.05 vs. ApoE.

Notch1 = Notch1 expression in HSCs and lymphoid progenitors (Example 5); type: in vivo, mouse
Procedure: Cells were stained with monoclonal antibodies conjugated to various fluoroprobes. These antibodies included: Notch1, cKit (2B8), Sca-1 (E13-161.7), CD4 (L3T4), CD8 (53-6.72), CD90.1, CD25, CD44, TCRβ, NK1.1, γδTCR, CD45.1, CD45.2. The lineage cocktail consisted of CD4, CD8, B220 (RA3-6B2), TER-119, Mac-1 (MI/70), and Gr-1 (RB6-8C5). All antibodies were purchased from BD Bioscience (San Diego, Calif.). FACS analysis was carried out on a FACS Diva.
The Notch family is an evolutionarily conserved system of receptors and ligands that play a fundamental role in regulating cell-fate decision in many types of stem and progenitor cells, including HSCs. Notch1 plays a critical role in lymphocyte differentiation, wherein expression of Notch1 favors T cell differentiation. To clarify the effects of hypercholesterolemia on the expression Notch family, the expression of Notch family was screened in HSCs isolated from WT and ApoE^−/− mice. The percentage of HSCs expressing of Notch1 was higher in hypercholesterolemic than WT mice, whereas no differences in Notch2, Notch4, or Delta-like-1 were noted among groups (FIG. 47A). FIGS. 47A-47D show notch 1 expression is greater in HSCs from hypercholesterolemic mice. […] (B) Within the HSC population, a higher percentage of long term-HSCs expressed Notch1 than did short term-HSCs. This difference was evident in both WT and ApoE^−/− mice, although the percentage of short term-HSCs expressing Notch1 was twofold higher in ApoE^−/− than WT mice. […] (D) Treatment of ApoE^−/−, but not WT mice with SB203580 reduced the percentage of HSCs expressing Notch1. m±sd, n=5, *p<0.05 vs. WT, †p<0.05 vs. ApoE or HCD, p<0.05 vs. long-term HSCs.

[1] = system: hematopoietic stem cells (HSCs); test: DCF-DA staining of HSCs from hypercholesterolemic mice (Example 6); type: in vivo, mouse; details: ApoE^−/− and HCD mice, 100 mg/Kg i.p. every other day for 4 weeks
Text: All mice were purchased from Jackson Laboratories (Bar Harbor, Me.) and were maintained in the mouse barrier facility. Care of mice was in accordance with NIH guidelines and the Institutional Animal Care and Use Committee of the University of Massachusetts Medical School approved all protocols. Mice were kept on a 12 hr day/night schedule and were allowed free access to chow and water. ApoE^−/− and WT mice were fed standard mouse chow (5.4 g fat/100 g diet, 0% cholesterol). HCD mice were fed a diet with 10 g fat/100 g diet, […] (Research Diets, New Brunswick, N.J.). […] Azoxymethane (AOM) was given by intraperitoneal injection (10 mg/Kg weekly for 3 weeks); 1% dextran sodium sulfate was added to the drinking water for the Pt week after AOM treatment. It is known that hypercholesterolemia induces oxidant stress in many cell types. […] FIGS. 49A-49C show hypercholesterolemia increases oxidant levels in hematopoietic stem cells. […] (B) Representative photomicrograph showing oxLDL-staining in HSC and BM-MNC from WT and ApoE^−/− mice. (C) Regression of mean polyp number/mouse on the % of HSC staining for DCF-DA. […] Statistical analysis was carried out using the means for each group. […] One of the principal means by which hypercholesterolemia induces oxidant stress is via the generation of oxidized low density lipoprotein (oxLDL).

Fyn = Fyn expression in total thymocyte population; type: in vivo, mouse; details: ApoE^−/− and HCD mice
Text: Fyn, a member of the Src family of tyrosine kinases, is a critical participant in NKT cell development (33,34). […] FIGS. 55A-55C show Thymocyte Fyn expression is reduced in hypercholesterolemic mice. […] Representative western blots from 3 mice in each group, all run on the same gel, are shown. […] However, in DN3 and DN4 thymocytes, Fyn mRNA expression was less in ApoE^−/− than in WT mice. m±sd, *p<0.05 vs. WT; n=4 mice per group. (C) siRNA for Notch1 reduced mRNA expression of Fyn in WT thymocytes in vitro, with a threshold observed at 1.0 μg siRNA. m±sd, n=3 mice; *p<0.05 vs. random RNA. A representative western blot showing a single experiment run on the same gel is shown. […] These findings indicate that Notch1 and Fyn expression are linked, and that the reduced NKT expression in hypercholesterolemic mice is due, in part, to the Notch1 dependent reduction of Fyn expression in thymocytes. Finally, Fyn expression was determined in the total thymocyte population from WT recipient mice transplanted with ApoE^−/−- or WT-derived HSCs. Thymocyte Fyn expression in WT recipients transplanted with ApoE^−/−-derived HSCs was less than half that observed in WT recipients transplanted with WT-derived HSCs (FIG. 56). […] Fyn expression in thymocytes from the Apoe→WT group was less than in the WT→WT group. m±sd; n=4; *p<0.05 vs. WT→WT group. […]

[2] = ApoE^−/− mice, in vivo treatment

For `CC(=O)N[C@@H](CS)C(=O)O` [NAC, N-acetylcysteine], the “oxidative/nitrative stress (DCF-DA staining, nitrotyrosine accumulation)” value (db/db MSC) was “significantly reduced the presence of oxidative/nitrative stress”, the “expression of activated p38 in HSCs” value (p38 MAPK; [2]) was “significantly reduced expression of activated p38 in ApoE^−/− HSCs” and the “expression of activated p38 in HSCs” value (p38 MAPK; WT mice) was “had no effect on activated p38 expression in WT HSCs”. The “percentages of pre-B cells and pro-T cells expressing Notch1” value (Notch1; [2]) was “these effects were reversed by in vivo treatment with NAC”, the “percentage of HSCs expressing Notch1” value (Notch1; WT mice) was “no effect was noted in WT mice” and the “percentage of HSCs expressing Notch1” value (Notch1; hypercholesterolemic mice (ApoE^−/−, HCD), in vivo treatment) was “significantly reduced the percentage of ApoE^−/− and HCD HSCs expressing Notch1”. The “DCF-DA staining in HSCs” value [1] was “significantly reversed” and the “expression of Fyn in the total thymocyte population” value (Fyn) was “restored in vivo by treatment with NAC”.
